SMILES strings stand for the structures.

The target in the assay is Escherichia coli DNA gyrase A/B tetramer (Escherichia coli, UniProt P0AES4+P0AES6). The experiment in a line: DNA gyrase supercoiling activity fluorescence polarisation assay. In kind it is biochemical. The method, then:
In a black, 384-well polystyrene assay plate, 30 microliters/well of 5 nM Escherichia coli DNA gyrase A/B tetramer and 130 micrograms/ml of topologically relaxed plasmid containing the triplex-forming sequence […] in an assay buffer consisting of 35 mM Tris-HCl (pH 7.5), 24 mM KCl, 4 mM MgCl2, 2 mM dithiothreitol, 1.8 mM spermidine, 5% (v/v) glycerol, 200 nM bovine serum albumin, 0.8% dimethylsulfoxide, and 0.3 mM ATP may be incubated at ambient temperature for (typically 30 minutes) in the absence or presence of 5-10 different concentrations of test compound. The supercoiling reactions may be quenched by the addition of 10 microliters/well of 40 nM oligodeoxynucleotide probe in 3× triplex-forming buffer consisting of 150 mM NaCl, and 150 mM sodium acetate at pH 3.5. The oligodeoxynucleotide probe may be 5′-BODIPY-FL-labeled TTCTTCTTC. After 60 minutes, the fluorescence anisotropy of the BODIPY-FL may be measured in a Tecan Ultra plate reader, using 485 nm excitation and 535 nm emission filters equipped with polarizers. The IC50 may be determined by nonliner regression using two control reactions. The first contains no test compound but 0.8% DMSO (100% activity) while the second control reaction contains 5 uM Ciprofloxacin and 0.8% DMSO (0% activity).
When tested in an in-vitro assay based on the DNA gyrase supercoiling activity fluorescence polarisation assay described above, the E. coli DNA gyrase supercoiling IC50 assay inhibitory activity of the following Examples was measured at the indicated IC50.

Escherichia coli DNA gyrase A/B tetramer, sequence (P0AES4 whole entry, one chain of several): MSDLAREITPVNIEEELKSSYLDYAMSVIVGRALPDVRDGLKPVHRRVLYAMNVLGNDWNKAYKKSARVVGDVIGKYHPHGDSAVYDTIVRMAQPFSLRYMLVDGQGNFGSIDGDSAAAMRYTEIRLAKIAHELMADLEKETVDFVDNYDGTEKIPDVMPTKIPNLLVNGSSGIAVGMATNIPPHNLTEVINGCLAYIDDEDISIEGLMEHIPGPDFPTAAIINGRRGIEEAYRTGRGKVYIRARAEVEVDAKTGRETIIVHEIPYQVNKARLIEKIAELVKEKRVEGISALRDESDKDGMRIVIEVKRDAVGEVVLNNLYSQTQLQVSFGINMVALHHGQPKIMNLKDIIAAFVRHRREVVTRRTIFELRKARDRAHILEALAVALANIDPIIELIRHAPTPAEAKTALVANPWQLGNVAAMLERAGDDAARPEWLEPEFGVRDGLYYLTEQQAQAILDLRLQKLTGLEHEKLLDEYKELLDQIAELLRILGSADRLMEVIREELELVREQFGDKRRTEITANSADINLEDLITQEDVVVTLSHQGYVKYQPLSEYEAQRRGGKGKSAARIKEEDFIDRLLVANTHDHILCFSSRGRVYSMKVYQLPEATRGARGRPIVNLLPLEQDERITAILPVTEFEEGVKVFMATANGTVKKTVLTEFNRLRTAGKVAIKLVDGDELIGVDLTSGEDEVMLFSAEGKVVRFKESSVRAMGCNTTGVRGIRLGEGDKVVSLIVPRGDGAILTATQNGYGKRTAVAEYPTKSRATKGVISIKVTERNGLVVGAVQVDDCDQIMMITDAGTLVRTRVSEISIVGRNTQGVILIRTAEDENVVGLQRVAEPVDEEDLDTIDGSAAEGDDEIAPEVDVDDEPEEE

Usually IC50 stands for the concentration needed to halve the response being measured. Higher therefore signals weaker potency. In turn, `C[C@H]1CN2c3c(cc(C#Cc4cc5ccccc5s4)c(F)c3F)CC3(C(=O)NC(=O)NC3=O)[C@@H]2[C@@H](C)O1` (racemic) [Example 11, (2S,4R,4aR)-rel-8-(1-Benzothiophen-2-ylethynyl)-9,10-difluoro-2,4-dimethyl-1,2,4,4a-tetrahydro-2′H,6H-spiro[1,4-oxazino[4,3-a]quinoline-5,5′-pyrimidine]-2′,4′,6′(1′H,3′H)-trione] gave a half-inhibitory concentration (IC50) of 5490 nM. The figure for `C[C@@H]1CN2c3c(cc(C#Cc4nccn4C)c(F)c3F)CC3(C(=O)NC(=O)NC3=O)[C@H]2[C@H](C)O1` (racemic) [Example 12, (2R,4S,4aS)-rel-9,10-Difluoro-2,4-dimethyl-8-[(1-methyl-1H-imidazol-2-yl)ethynyl]-1,2,4,4a-tetrahydro-2′H,6H-spiro[1,4-oxazino≡[4,3-a]quinoline-5,5′-pyrimidine]-2′,4′,6′(1′H,3H)-trione] is 690 nM.

In turn, `C[C@H]1CN2c3c(cc(C#Cc4cn(C)cn4)c(F)c3F)CC3(C(=O)NC(=O)NC3=O)[C@@H]2[C@@H](C)O1` (racemic) [Example 13, (2S,4R,4aR)-rel-9,10-Difluoro-2,4-dimethyl-8-[(1-methyl-1H-imidazol-4-yl)ethynyl]-1,2,4,4a-tetrahydro-2′H,6H-spiro[1,4-oxazino[4,3-a]quinoline-5,5′-pyrimidine]-2′,4′,6′-(1′H,3′H)-trione] showed an IC50 of 2170 nM. Under `C[C@@H]1CN2c3cc(F)c(C#Cc4cc5ccccc5s4)cc3CC3(C(=O)NC(=O)NC3=O)[C@H]2[C@H](C)O1` (racemic) [Example 29, (2R,4S,4aS)-rel-8-(1-Benzothiophen-2-ylethynyl)-9-fluoro-2,4-dimethyl-1,2,4,4a-tetrahydro-2′H,6H-spiro[1,4-oxazino[4,3-a]quinoline-5,5′-pyrimidine]-2′,4′,6′(1′H,3′H)-trione] stands 20000 nM; under `C[C@@H]1CN2c3c(F)cc(C#Cc4cc5ccccc5s4)cc3CC3(C(=O)NC(=O)NC3=O)[C@H]2[C@H](C)O1` (racemic) [Example 41, (2R,4S,4aS)-rel-8-(1-Benzothiophen-2-ylethynyl)-10-fluoro-2,4-dimethyl-1,2,4,4a-tetrahydro-2′H,6H-spiro[1,4-oxazino[4,3-a]quinoline-5,5′-pyrimidine]-2′,4′,6′(1′H,3′H)-trione], 7160 nM. The figure for `COC(=O)N/N=C(\C)c1cc2c(c(F)c1F)N1C[C@@H](C)O[C@@H](C)[C@@H]1C1(C2)C(=O)NC(=O)NC1=O` (racemic) [Example 49, Methyl (2E)-2-{1-[(2R,4S,4aS)-rel-9,10-difluoro-2,4-dimethyl-2′,4′6′-trioxo-1,1′,2,3′,4,4′,4a,6′-octahydro-2′H,6H-spiro[1,4-oxazino[4,3-a]quinoline-5,5′-pyrimidin]-8-yl]ethylidene}hydrazinecarboxylate] is 450 nM; for `C[C@@H]1CN2c3ccc(C#Cc4ccccn4)cc3CC3(C(=O)NC(=O)NC3=O)C2[C@H](C)O1` (relative stereo) [Example 2, (2R,4S)-rel-2,4-Dimethyl-8-(pyridin-2-ylethynyl)-1,2,4,4a-tetrahydro-2′H,6H-spiro[1,4-oxazino[4,3-a]quinoline-5,5′-pyrimidine]-2′,4′,6′(1′H,3′H)-trione] it is 2090 nM. Under `C[C@@H]1CN2c3ccc(C#Cc4ccncc4)cc3CC3(C(=O)NC(=O)NC3=O)[C@H]2[C@H](C)O1` (relative stereo) [Example 3, (2R,4S,4aS)-rel-2,4-Dimethyl-8-(pyridin-4-ylethynyl)-1,2,4,4a-tetrahydro-2′H,6H-spiro[1,4-oxazino[4,3-a]quinoline-5,5′-pyrimidine]-2′,4′,6′(1′H,3′H)-trione] stands 2480 nM; under `C[C@@H]1CN2c3ccc(C#Cc4nccn4C)cc3CC3(C(=O)NC(=O)NC3=O)[C@H]2[C@H](C)O1` (relative stereo) [Example 4, (2R,4S,4aS)-rel-2,4-Dimethyl-8-[(1-methyl-1H-imidazol-2-yl)ethynyl]-1,2,4,4a-tetrahydro-2′H,6H-spiro[1,4-oxazino[4,3-a]quinoline-5,5′-pyrimidine]-2′,4′,6′(1′H,3′H)-trione], 630 nM; under `Cc1nnc(C#Cc2cc3c(c(F)c2F)N2C[C@H](C)O[C@H](C)[C@H]2C2(C3)C(=O)NC(=O)NC2=O)s1` (relative stereo) [Example 5, (2S,4R,4aR)-rel-9,10-Difluoro-2,4-dimethyl-8-[(5-methyl-1,3,4-thiadiazol-2-yl)ethynyl]-1,2,4,4a-tetrahydro-2′H,6H-spiro[1,4-oxazino[4,3-a]quinoline-5,5′-pyrimidine]-2′,4′,6′(1′H,3′H)-trione], 1880 nM. As for `C[C@H]1CN2c3c(cc(C#C[Si](C)(C)C)c(F)c3F)CC3(C(=O)NC(=O)NC3=O)[C@@H]2[C@@H](C)O1` (relative stereo) [Example 6, (2S,4R,4aR)-rel-9,10-Difluoro-2,4-dimethyl-8-[(trimethylsilyl)ethynyl]-1,2,4,4a-tetrahydro2′H,6H-spiro[1,4-oxazino[4,3-a]quinoline-5,5′-pyrimidine]-2′,4′,6′(1′H,3′H)-trione], it took 3270 nM to reach half-maximal inhibition (IC50). Under `C[C@H]1CN2c3c(cc(C#Cc4nncs4)c(F)c3F)CC3(C(=O)NC(=O)NC3=O)[C@@H]2[C@@H](C)O1` (relative stereo) [Example 7, (2S,4R,4aR)-rel-9,10-Difluoro-2,4-dimethyl-8-(1,3,4-thiadiazol-2-ylethynyl)-1,2,4,4a-tetrahydro-2′H,6H-spiro[1,4-oxazino[4,3-a]quinoline-5,5′-pyrimidine]-2′,4′,6′(1′H,3′H)-trione] stands 410 nM. The figure for `C[C@H]1CN2c3c(cc(C#Cc4nccs4)c(F)c3F)CC3(C(=O)NC(=O)NC3=O)[C@@H]2[C@@H](C)O1` (relative stereo) [Example 8, (2S,4R,4aR)-rel-9,10-Difluoro-2,4-dimethyl-8-(1,3-thiazol-2-ylethynyl)-1,2,4,4a-tetrahydro-2′H,6H-spiro[1,4-oxazino[4,3-a]quinoline-5,5′-pyrimidine]-2′,4′,6′(1′H,3′H)-trione] is 1290 nM; for `C[C@H]1CN2c3c(cc(C#Cc4cncs4)c(F)c3F)CC3(C(=O)NC(=O)NC3=O)[C@@H]2[C@@H](C)O1` (relative stereo) [Example 9, (2S,4R,4aR)-rel-9,10-Difluoro-2,4-dimethyl-8-(1,3-thiazol-5-ylethynyl)-1,2,4,4a-tetrahydro-2′H,6H-spiro[1,4-oxazino[4,3-a]quinoline-5,5′-pyrimidine]-2′,4′,6′(1′H,3′H)-trione] it is 700 nM; for `C[C@H]1CN2c3c(cc(C#Cc4cccs4)c(F)c3F)CC3(C(=O)NC(=O)NC3=O)[C@@H]2[C@@H](C)O1` (relative stereo) [Example 10, (2S,4R,4aR)-rel-9,10-Difluoro-2,4-dimethyl-8-(thiophen-2-ylethynyl)-1,2,4,4a-tetrahydro-2′H,6H-spiro[1,4-oxazino[4,3-a]quinoline-5,5′-pyrimidine]-2′,4′,6′(1′H,3′H)-trione] it is 1450 nM. Regarding `C[C@@H]1CN2c3c(cc(C#Cc4ccc(-c5nnn[nH]5)s4)c(F)c3F)CC3(C(=O)NC(=O)NC3=O)[C@H]2[C@H](C)O1` (relative stereo) [Example 14, (2R,4S,4aS)-rel-9,10-Difluoro-2,4-dimethyl-8-{[5-(1H-tetrazol-5-yl)thiophen-2-yl]ethynyl}-1,2,4,4a-tetrahydro-2′H,6H-spiro[1,4-oxazino[4,3-a]quinoline-5,5′-pyrimidine]-2′,4′,6′(1′H,3′H)-trione], the half-maximal inhibitory concentration (IC50) was 1120 nM. Under `C[C@H]1CN2c3c(cc(C#Cc4c[nH]cn4)c(F)c3F)CC3(C(=O)NC(=O)NC3=O)[C@@H]2[C@@H](C)O1` (relative stereo) [Example 15, (2S,4R,4aR)-rel-9,10-Difluoro-8-(1H-imidazol-4-ylethynyl)-2,4-dimethyl-1,2,4,4a-tetrahydro-2′H,6H-spiro[1,4-oxazino[4,3-a]quinoline-5,5′-pyrimidine]-2′,4′,6′(1′H,3′H)-trione] stands 700 nM.

Compound `C[C@H]1CN2c3c(cc(C#Cc4ncc[nH]4)c(F)c3F)CC3(C(=O)NC(=O)NC3=O)[C@@H]2[C@@H](C)O1` (relative stereo) [Example 16, (2S,4R,4aR)-rel-9,10-Difluoro-8-(1H-imidazol-2-ylethynyl)-2,4-dimethyl-1,2,4,4a-tetrahydro-2′H,6H-spiro[1,4-oxazino[4,3-a]quinoline-5,5′-pyrimidine]-2′,4′,6′(1′H,3′H)-trione] came in with an IC50 of 690 nM. `C[C@@H]1CN2c3c(cc(C#Cc4ccc(-c5ccn[nH]5)s4)c(F)c3F)CC3(C(=O)NC(=O)NC3=O)[C@H]2[C@H](C)O1` (relative stereo) [Example 17, (2R,4S,4aS)-rel-9,10-Difluoro-2,4-dimethyl-8-{[5-(1H-pyrazol-5-yl)thiophen-2-yl]ethynyl}-1,2,4,4a-tetrahydro-2′H,6H-spiro[1,4-oxazino[4,3-a]quinoline-5,5′-pyrimidine]-2′,4′,6′(1′H,3′H)-trione] returned an IC50 of 1840 nM.

For the origin of these results see patent US20100261719A1, “CHEMICAL COMPOUNDS” (priority 2007, published 2010).
